Several values for one entry are separate records, joined by “and”; a condition that tells them apart may be missing. Equal values may be shown once.
Tested on: LX-1 lung xenograft sc, nude mice, tumor weight
Experiment: NCI In Vivo Anticancer Drug Screen. Data for tumor model Human Lung LX-1 Xenograft (subcutaneous) in NU/NU Swiss (nude) mice
Details: endpoint: optimum tumor weight change, higher = larger tumour
Procedure: The antitumor activity of compounds was measured in mice bearing transplantable tumors. Survival or tumor size were measured and the results are expressed as the measurement made in the treated group (T) divided by the measurement made in the vehicle treated control group (C). The tumor model used in this assay is Human Lung LX-1 Xenograft (subcutaneous) in NU/NU Swiss (nude) mice

COc1cc2c[n+](C)c3c4cc5c(cc4ccc3c2cc1OC)OCO5
T/C (dose: 20.0 mg/kg/injection, schedule: Q04DX003 (ip), vehicle: saline with Tween-80): 105 % of control | T/C (dose: 40.0 mg/kg/injection, schedule: Q04DX003 (ip), vehicle: saline with Tween-80): 34 % of control | T/C (dose: 80.0 mg/kg/injection, schedule: Q04DX003 (ip), vehicle: saline with Tween-80): 54 % of control

N/C(=N\O)c1cn(C2OC(CO)C(O)C2O)c2ncnc(N)c12 (stereo not drawn)
T/C (dose: 5.0 mg/kg/injection, schedule: Q04DX003 (ip), vehicle: Klucel (hydroxypropylcellulose) (HPC)): 70 % of control | T/C (dose: 10.0 mg/kg/injection, schedule: Q04DX003 (ip), vehicle: Klucel (hydroxypropylcellulose) (HPC)): 68 % of control | T/C (dose: 20.0 mg/kg/injection, schedule: Q04DX003 (ip), vehicle: Klucel (hydroxypropylcellulose) (HPC)): 62 % of control

Oc1cc2c3c(c1)c1cc4c(cc1c[n+]3CC2)OCO4
T/C (dose: 12.5 mg/kg/injection, schedule: Q04DX003 (ip), vehicle: water): 78 % of control | T/C (dose: 25.0 mg/kg/injection, schedule: Q04DX003 (ip), vehicle: water): 63 % of control | T/C (dose: 50.0 mg/kg/injection, schedule: Q04DX003 (ip), vehicle: water): 62 % of control

O=C(NO)c1ccccc1
T/C (dose: 100.0 mg/kg/injection, schedule: Q04DX003 (ip), vehicle: suspension in saline): 95 % of control | T/C (dose: 200.0 mg/kg/injection, schedule: Q04DX003 (ip), vehicle: suspension in saline): 68 % of control and 84 % of control | T/C (dose: 400.0 mg/kg/injection, schedule: Q04DX003 (ip), vehicle: suspension in saline): 55 % of control and 80 % of control | T/C (dose: 800.0 mg/kg/injection, schedule: Q04DX003 (ip), vehicle: suspension in saline): 85 % of control

CN1CCN(CCCN2c3ccccc3Sc3ccc(C(F)(F)F)cc32)CC1
T/C (dose: 6.25 mg/kg/injection, schedule: Q04DX003 (ip), vehicle: saline): 63 % of control | T/C (dose: 12.5 mg/kg/injection, schedule: Q04DX003 (ip), vehicle: saline): 78 % of control | T/C (dose: 25.0 mg/kg/injection, schedule: Q04DX003 (ip), vehicle: saline): 84 % of control

CC(C)CCCCCCCCCCCCC(=O)NCC(=O)NC1C(O)C(O)C(Nc2ncnc3nc[nH]c23)OC1C(O)CO (stereo not drawn)
T/C (dose: 3.0 mg/kg/injection, schedule: Q04DX003 (ip), vehicle: suspension in saline): 81 % of control | T/C (dose: 12.0 mg/kg/injection, schedule: Q04DX003 (ip), vehicle: suspension in saline): 34 % of control

COc1cc([C@@H]2c3cc4c(c(O)c3C[C@H]3COC(=O)[C@@H]32)OCO4)cc(OC)c1OC
T/C (dose: 2.5 mg/kg/injection, schedule: Q04DX003 (ip), vehicle: saline): 107 % of control | T/C (dose: 5.0 mg/kg/injection, schedule: Q04DX003 (ip), vehicle: saline): 73 % of control | T/C (dose: 10.0 mg/kg/injection, schedule: Q04DX003 (ip), vehicle: saline): 86 % of control | T/C (dose: 20.0 mg/kg/injection, schedule: Q04DX003 (ip), vehicle: saline): 64 % of control

C[n+]1c(-c2cccc3ccccc23)c2cc(N)ccc2c2ccccc21
T/C (dose: 0.75 mg/kg/injection, schedule: Q04DX003 (ip), vehicle: saline): 61 % of control | T/C (dose: 1.5 mg/kg/injection, schedule: Q04DX003 (ip), vehicle: saline): 57 % of control

CN(C)c1nc(N(C)C)nc(N(C)C)n1
T/C (dose: 60.0 mg/kg/injection, schedule: Q01DX005 (ip), vehicle: Klucel (hydroxypropylcellulose) (HPC)): 71 % of control | T/C (dose: 60.0 mg/kg/injection, schedule: Q07DX005 (ip), vehicle: Klucel (hydroxypropylcellulose) (HPC)): 188 % of control | T/C (dose: 120.0 mg/kg/injection, schedule: Q01DX005 (ip), vehicle: Klucel (hydroxypropylcellulose) (HPC)): 85 % of control | T/C (dose: 120.0 mg/kg/injection, schedule: Q07DX005 (ip), vehicle: Klucel (hydroxypropylcellulose) (HPC)): 78 % of control

O=c1[nH]cnc2n[nH]nc12
T/C (dose: 200.0 mg/kg/injection, schedule: Q04DX003 (ip), vehicle: Klucel (hydroxypropylcellulose) (HPC)): 111 % of control | T/C (dose: 400.0 mg/kg/injection, schedule: Q04DX003 (ip), vehicle: Klucel (hydroxypropylcellulose) (HPC)): 59 % of control | T/C (dose: 800.0 mg/kg/injection, schedule: Q04DX003 (ip), vehicle: Klucel (hydroxypropylcellulose) (HPC)): 94 % of control

CCC1=C[C@H]2CN(CCc3c([nH]c4ccccc34)[C@@](C(=O)OC)(c3cc4c(cc3OC)N(C)[C@H]3[C@@](O)(C(=O)NC)[C@H](OC(C)=O)[C@]5(CC)C=CCN6CC[C@]43[C@@H]65)C2)C1
T/C (dose: 0.25 mg/kg/injection, schedule: Q04DX003 (ip), vehicle: water): 69 % of control | T/C (dose: 0.5 mg/kg/injection, schedule: Q04DX003 (ip), vehicle: water): 40 % of control | T/C (dose: 1.0 mg/kg/injection, schedule: Q04DX003 (ip), vehicle: water): 98 % of control

CN(C)N=Nc1ccccc1
T/C (dose: 12.5 mg/kg/injection, schedule: Q04DX003 (ip), vehicle: Klucel (hydroxypropylcellulose) (HPC)): 94 % of control | T/C (dose: 25.0 mg/kg/injection, schedule: Q04DX003 (ip), vehicle: Klucel (hydroxypropylcellulose) (HPC)): 61 % of control and 79 % of control

Cc1c(N)nc(C(CC(N)=O)NCC(N)C(N)=O)nc1C(=O)NC(C(=O)NC(C)C(O)C(C)C(=O)NC(C(=O)NCCc1nc(-c2nc(C(=O)NCCCNC(C)c3ccccc3)cs2)cs1)C(C)O)C(OC1OC(CO)C(O)C(O)C1OC1OC(CO)C(O)C(OC(N)=O)C1O)c1cnc[nH]1 (stereo not drawn)
T/C (dose: 15.0 mg/kg/injection, schedule: Q04DX003 (ip), vehicle: saline): 35 % of control | T/C (dose: 30.0 mg/kg/injection, schedule: Q04DX003 (ip), vehicle: saline): 35 % of control
